Tests used:
Assay type in all cases: biochemical
TxGH116 β-glucosidase [1] = target: T1, TxGH116 β-glucosidase (Thermoanaerobacterium xylanolyticum, UniProt F6BL85); test: inhibition of 4NPGlc hydrolysis, Lineweaver–Burk
T1 sequence (F6BL85 19-806): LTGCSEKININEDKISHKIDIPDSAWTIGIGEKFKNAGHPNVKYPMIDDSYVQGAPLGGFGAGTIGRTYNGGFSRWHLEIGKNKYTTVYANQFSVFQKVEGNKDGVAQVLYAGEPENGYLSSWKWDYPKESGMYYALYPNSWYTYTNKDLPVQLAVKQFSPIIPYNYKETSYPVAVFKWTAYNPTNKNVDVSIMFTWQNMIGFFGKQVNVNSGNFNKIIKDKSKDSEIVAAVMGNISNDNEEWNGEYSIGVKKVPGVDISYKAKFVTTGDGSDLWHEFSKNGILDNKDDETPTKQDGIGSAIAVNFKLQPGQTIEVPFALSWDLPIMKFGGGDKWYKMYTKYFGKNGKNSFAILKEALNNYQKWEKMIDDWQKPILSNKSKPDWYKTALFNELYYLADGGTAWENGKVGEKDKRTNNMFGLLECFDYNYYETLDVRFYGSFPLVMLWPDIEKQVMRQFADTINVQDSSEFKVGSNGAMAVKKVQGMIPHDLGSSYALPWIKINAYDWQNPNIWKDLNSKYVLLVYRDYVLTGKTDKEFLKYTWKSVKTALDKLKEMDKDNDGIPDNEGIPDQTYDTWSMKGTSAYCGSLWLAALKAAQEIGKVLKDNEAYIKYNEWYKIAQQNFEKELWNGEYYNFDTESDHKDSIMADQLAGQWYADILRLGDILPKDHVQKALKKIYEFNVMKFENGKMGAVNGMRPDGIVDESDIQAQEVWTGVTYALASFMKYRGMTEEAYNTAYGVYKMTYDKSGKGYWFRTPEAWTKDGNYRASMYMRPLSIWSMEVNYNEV

TxGH116 β-glucosidase [2] = target: T1, TxGH116 β-glucosidase; test: crystal structure
TxGH116 β-glucosidase [3] = target: T1, TxGH116 β-glucosidase; test: inactivation of the purified enzyme
TxGH116 β-glucosidase [4] = target: T1, TxGH116 β-glucosidase; test: crystal structure; remark: listed apart in the source

For OC[C@H]1CNC[C@@H](O)[C@@H]1O [IFG, isofagomine], the Ki (TxGH116 β-glucosidase [1]) was 0.0029 ± 0.0001 µM.

Molecule OC[C@H]1O[C@@H](O)[C@H](O)[C@@H](O)[C@@H]1O [Glc, D-glucose] has a Ki (TxGH116 β-glucosidase [2]) of 4000 ± 300 µM.

With OC[C@@H]1[C@@H](O)[C@H](O)[C@@H](O)[C@@H]2O[C@H]12 [cyclophellitol] the “inactivation of the purified enzyme” value (TxGH116 β-glucosidase [3]) was “cyclophellitol, a related epoxide that contains a hydroxymethyl group corresponding to the hydroxymethyl group of glucose, rapidly inactivated TxGH116”.

Molecule OC[C@H]1NC[C@H](O)[C@@H](O)[C@@H]1O [DNJ, deoxynojirimycin] has a Ki (TxGH116 β-glucosidase [4]) of 0.13 ± 0.01 µM.

Reference: article PMC4949581 (ACS Chemical Biology, 2016)
